Data as given in patent US6767738B1, “Method of isolating adult mammalian CNS-derived progenitor stem cells using density gradient centrifugation” (The Salk Institute for Biological Studies, priority 1999, dated 2004).

What was measured:
[1] = tested on: clonal stem cells (AP14); experiment: RT-PCR analysis of p21, NeuroD, trk and p75NGFR mRNA in stem cell cultures; format: cell-based, rat
Method: (§1) Cell Culture. For proliferating conditions, clonal stem cells (AP14) were cultured in Dulbecco's Modified Eagles Medium/Ham's F12 (DMEM/F12, 1:1) containing N2 supplement (Gibco BRL, Gaithersburg, Md.) and 20 ng/ml rhFGF-2 (provided by A. Baird, Prizm Pharmaceuticals Inc., La Jolla, Calif.). Culture dishes (Becton Dickinsin Labware, Lincoln Park, N.J.) were coated with polyomithine and mouse laminin as previously described by Ray, et al., Proliferation, differentiation and long-term culture of primary hippocampal neurons, Proc Natl Acad Sci USA 90:3602-3606 (1993). For differentiation experiments, cells were plated into polyornithine/laminin coated glass chamber slides (Nunc, Naperville, Ill.) at a density of 2.5—103 per cm2. The cells were incubated for 24 hrs in normal N2 medium containing 20 ng/ml FGF-2, and then the medium was replaced by N2 medium containing 0.5% […] (FBS) and 0.01% DMSO (control solvent) or […] all-trans retinoic acid (Sigma, St. Louis, Mo.). For further differentiation, the medium was replaced by N2 medium containing 0.5% FBS and one of the following: sterile water (control solvent), mouse 2.55 NGF (50 ng/ml, Boehringer Mannheim, Indianapolis, Ind.), rhBDNF (20 ng/ml, Alomone Labs, Jerusalem, Israel), rhNT-3 (40 ng/ml, Genentech, South San Francisco, Calif.). The medium was replaced every two days. For inhibition of the tyrosine kinase activity of the Trk receptors, K-252a (100 nM, Calbiochem, San Diego, Calif.) was added to the medium.
Reverse Transcription-PCR Analysis. Total RNA from stem cells was isolated using RNeasy Total RNA Kits (Qiagen, Chatsworth, Calif.) according to manufacturer's instructions. Fifty nanograms of total RNA was reverse transcribed using avian myeloblastosis virus reverse transcriptase (Promega, Madison, Wis.) with random hexamers ([…]) as primers in a […] reaction mixture. For PCR amplification, two sets of specific oligonucleotide pairs ([…]) were used: one directed to the transcript of interest, and one for a constitutively expressed transcript, either ribosomal protein L27 or L27a. Reactions were performed in a […] reaction mixture containing 10 mM Tris-Cl (pH 8.4), 50 mm KCl, 1.5 mM MgC12, […] each of the four dNTPs, 2 mCi of [a-32P]dCTP and 5 units of Taq polymerase (Promega) using a thermal cycler (Perkin-Elmer, Foster City, Calif.) with a regimen of 1 min at 94° C., 2 min at 60° C. (55° C. for trk receptors) and 2 min at 72° C. for 23 cycles Fifty microliters of each reaction was analyzed by electrophoresis on 8% polyacrylamide gels followed by autoradiography. […] Under these conditions, the L27 amplification product was directly proportional to the amount of input RNA, up to 50 ng total RNA. Oligonucleotide primers used are as follows: […]

[2] = tested on: c-Fos; experiment: c-Fos immunofluorescence double labeling after neurotrophin stimulation; format: cell-based, rat; conditions: RA for 6 days prior to stimulation by neurotrophins
Method: as §1, with “For further differentiation, the medium was replaced by N2 medium containing 0.5% FBS and one of the following: sterile water (control solvent), mouse 2.55 NGF (50 ng/ml, Boehringer Mannheim, Indianapolis, Ind.), rhBDNF (20 ng/ml, Alomone Labs, Jerusalem, Israel), rhNT-3 (40 ng/ml, Genentech, South San Francisco, Calif.). The medium was replaced every two days. For inhibition of the tyrosine kinase activity of the Trk receptors, K-252a (100 nM, Calbiochem, San Diego, Calif.) was added to the medium.” left out
Immunofluorescence. […] Both the average percentage and the absolute number +/− SEM of immunofluorescent cells were determined by counting 10 or 50 high power fields (20×) visualized under fluorescence. The total number of cells was counted using nuclear counterstaining with 4′,6diamidino-2-phenylindole (DAPI, Sigma). […]

Structure (SMILES): CC1=C(/C=C/C(C)=C/C=C/C(C)=C/C(=O)O)C(C)(C)CCC1 [RA, all-trans retinoic acid]
- p21 mRNA ([1]; RA treatment, peaked after roughly 5 days): significant yet gradual increase
- trkA mRNA ([1]; following RA treatment): increased gradually and reached a plateau after 5 days
- trkB mRNA ([1]; following RA treatment): increased gradually and reached a plateau after 5 days
- trkC mRNA ([1]; following RA treatment): increased gradually and reached a plateau after 5 days
- p75NGFR mRNA ([1]; following RA treatment, 7-day time course): dramatically increased
- expression of NeuroD mRNA ([1]; within 24 hrs of FGF-2 withdrawal and RA treatment, 6 days): increased and remained elevated
- number of c-Fos-positive cells [2]: significantly enhanced
